Legend:
Assay type in all cases: in vitro ADME
CYP2C9 = target: T1, CYP2C9 (Homo sapiens, UniProt P11712); assay: CYP inhibition assay in human liver microsome, CYP2C9; details: percentage inhibition, substrate Diclofenac 5 μM
T1 construct: tissue BD-Gentest 452117; host or cells: human liver microsomes
Experimental: (§1) This is a high throughput screening assay used for assessment of reversible inhibition of CYP2C9, CYP2D6, and CYP3A4 activity of test compounds in human liver microsome (HLM) in early discovery stage.
(§2) 10 mM DMSO stock solutions of test compounds were diluted in DMSO to generate 2 mM intermediate stock solution. 250 nL of intermediate stock solution were transferred in duplicate into 3 separate 384 well microtitre plates (assay-ready plates). A mixture of HLM and each substrate was made up. 45 μL of HLM substrate mix was then transferred to each well of an assay ready plate and mixed. The negative (solvent) and positive controls (standard inhibitor for each CYP) were included in each assay ready plate. The assay ready plate was warmed to 37° C. in an incubator over 10 minutes. 5 μL pre-warmed NADPH regenerating system was added to each incubation well to start the reaction. Final incubation volume was 50 μL. The assay plate then was placed back in the 37° C. incubator. After incubation (10 minutes for CYP2D6) for 5 minutes, incubates were quenched by addition of 50 μL 100% acetonitrile containing internal standards (400 ng/mL 13C6-4′-OH-Diclofenac, 20 ng/mL D3-Dextrorphan and 20 ng/mL D4-1′OH-Midazolam). The supernatants were collected for RapidFire/MS/MS analysis.
(§3) RapidFire online solid phase extraction/sample injection system (Agilent) coupled with API4000 triple quadrupole mass spectrometer (AB Sciex) were used for sample analysis. The mobile phase composed of acetonitrile and water supplemented with 0.1% formic acid. A C4 solid phase extraction cartridge is used for sample separation. MS detection is achieved in positive ion MRM mode.
(§4) Peak areas for substrate, metabolite and internal standard are determined using the RapidFire integrator software (version 3.6.12009.12296). Peak area ratios (PAR) of metabolite and internal standard (stable-labelled metabolite) are then calculated. The measurement window for each experiment is then defined:
(§5) PAR (0% activity)=average PAR for all incubations containing concentrated inhibitor;
(§6) Par (100% activity)=average PAR for all incubations containing no inhibitor (DMSO controls);
(§7) % Activity (test inhibitor)=[PAR(test inhibitor)−PAR(0% activity)/PAR(100% activity)−PAR(0% activity)];
(§8) % Inhibition (test inhibitor)=100−% Activity (test inhibitor).

CYP2D6 = target: T2, CYP2D6 (Homo sapiens, UniProt P10635); assay: CYP inhibition assay in human liver microsome, CYP2D6; details: percentage inhibition, substrate Dextromethorphan 5 μM
T2 construct: tissue BD-Gentest 452117; host or cells: human liver microsomes
Experimental: as §1, §2, §3, §4, §5, §6, §7, §8

CYP3A4 = target: T3, CYP3A4 (Homo sapiens, UniProt P08684); assay: CYP inhibition assay in human liver microsome, CYP3A4; details: percentage inhibition, substrate Midazolam 5 μM
T3 construct: tissue BD-Gentest 452117; host or cells: human liver microsomes
Experimental: as §1, §2, §3, §4, §5, §6, §7, §8

T1 sequence (P11712 whole entry): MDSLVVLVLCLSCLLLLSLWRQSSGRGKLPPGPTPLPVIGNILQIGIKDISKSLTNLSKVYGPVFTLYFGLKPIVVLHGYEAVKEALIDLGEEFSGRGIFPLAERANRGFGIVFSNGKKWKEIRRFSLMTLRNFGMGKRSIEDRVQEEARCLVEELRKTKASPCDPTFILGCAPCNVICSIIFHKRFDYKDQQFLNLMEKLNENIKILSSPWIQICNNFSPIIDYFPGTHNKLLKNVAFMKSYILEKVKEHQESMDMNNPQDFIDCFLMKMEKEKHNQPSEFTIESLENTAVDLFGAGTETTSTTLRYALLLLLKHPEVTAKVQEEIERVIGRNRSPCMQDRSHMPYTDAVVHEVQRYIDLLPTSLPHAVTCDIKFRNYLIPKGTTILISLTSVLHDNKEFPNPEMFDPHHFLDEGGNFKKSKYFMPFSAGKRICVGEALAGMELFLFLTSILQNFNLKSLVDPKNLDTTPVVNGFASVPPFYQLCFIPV
T2 sequence (P10635 whole entry): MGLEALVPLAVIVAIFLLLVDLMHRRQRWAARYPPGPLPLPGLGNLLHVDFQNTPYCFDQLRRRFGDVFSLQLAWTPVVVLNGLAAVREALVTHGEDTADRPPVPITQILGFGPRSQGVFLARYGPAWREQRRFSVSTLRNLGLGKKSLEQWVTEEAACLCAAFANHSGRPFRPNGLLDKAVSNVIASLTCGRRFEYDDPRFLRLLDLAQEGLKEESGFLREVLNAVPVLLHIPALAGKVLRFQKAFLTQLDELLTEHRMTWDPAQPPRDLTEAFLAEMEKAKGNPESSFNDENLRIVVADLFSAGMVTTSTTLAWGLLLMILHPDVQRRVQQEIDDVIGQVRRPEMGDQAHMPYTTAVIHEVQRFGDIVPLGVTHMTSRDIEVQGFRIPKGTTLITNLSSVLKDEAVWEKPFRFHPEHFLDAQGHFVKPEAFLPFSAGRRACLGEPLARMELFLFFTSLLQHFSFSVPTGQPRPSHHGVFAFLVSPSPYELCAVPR
T3 sequence (P08684 whole entry): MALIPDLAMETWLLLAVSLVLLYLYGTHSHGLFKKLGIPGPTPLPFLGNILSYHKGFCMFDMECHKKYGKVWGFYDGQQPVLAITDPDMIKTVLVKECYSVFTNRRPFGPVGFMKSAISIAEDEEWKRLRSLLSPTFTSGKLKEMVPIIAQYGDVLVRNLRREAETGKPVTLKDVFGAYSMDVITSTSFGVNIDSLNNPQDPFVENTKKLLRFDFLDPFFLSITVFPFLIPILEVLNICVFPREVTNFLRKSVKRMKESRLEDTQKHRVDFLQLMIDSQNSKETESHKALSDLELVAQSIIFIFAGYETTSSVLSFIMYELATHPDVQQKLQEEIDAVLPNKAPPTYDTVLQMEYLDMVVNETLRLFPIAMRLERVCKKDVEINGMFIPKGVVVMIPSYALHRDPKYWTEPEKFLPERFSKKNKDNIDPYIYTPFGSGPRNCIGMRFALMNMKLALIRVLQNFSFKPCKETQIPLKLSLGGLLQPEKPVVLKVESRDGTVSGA

CYP (%) 2C9 (CYP2C9) | CYP (%) 2D6 (CYP2D6) | CYP (%) 3A4 (CYP3A4) | SMILES
14.5% | 0% | 37.5% | CO[C@H]1CN(c2ccc([C@@H]3CCN4[C@@H](C3)CN(c3ccc(C#N)c5ncccc35)C[C@H]4C)cn2)C[C@H]1N [Example 12, 5-[(4R,8R,9aS)-8-[6-[(3R,4S)-3-amino-4-methoxy-pyrrolidin-1-yl]-3-pyridyl]-4-methyl-1,3,4,6,7,8,9,9a-octahydropyrido[1,2-a]pyrazin-2-yl]quinoline-8-carbonitrile]
4.5% | 14.5% | 32.5% | [2H]c1ccc2c(N3C[C@@H]4C[C@H](N5CCN(c6ccncc6)CC5)CCN4[C@H](C)C3)ccc(C#N)c2n1 [Example 37, 5-[(4R,8R,9aS)-4-methyl-8-[4-(4-pyridyl)piperazin-1-yl]-1,3,4,6,7,8,9,9a-octahydropyrido[1,2-a]pyrazin-2-yl]-2-deuterio-quinoline-8-carbonitrile]
3% | 9% | 15.5% | C[C@@H]1CN(c2ccc(C#N)c3ncccc23)C[C@@H]2C[C@H](Nc3ccc(C[C@@H]4CNCCO4)cc3)CCN21 [Example 21, 5-[(4R,8R,9aS)-4-methyl-8-[4-[[(2R)-morpholin-2-yl]methyl]anilino]-1,3,4,6,7,8,9,9a-octahydropyrido[1,2-a]pyrazin-2-yl]quinoline-8-carbonitrile]
−20% | 2.5% | 3.5% | [2H]c1ccc2c(N3C[C@@H]4C[C@H](Nc5ccc(C[C@H]6CNCCO6)cc5)CCN4[C@H](C)C3)ccc(C#N)c2n1 [Example 34, 5-[(4R,8R,9aS)-4-methyl-8-[4-[[(2S)-morpholin-2-yl]methyl]anilino]-1,3,4,6,7,8,9,9a-octahydropyrido[1,2-a]pyrazin-2-yl]-2-deuterio-quinoline-8-carbonitrile]
4% | 8% | 37% | C[C@@H]1CN(c2ccc(C#N)c3ncccc23)C[C@@H]2C[C@H](c3ccc([C@@H]4CNCCO4)cc3)CCN21 [Example 27, 5-[(4R,8R,9aS)-4-methyl-8-[4-[(2R)-morpholin-2-yl]phenyl]-1,3,4,6,7,8,9,9a-octahydropyrido[1,2-a]pyrazin-2-yl]quinoline-8-carbonitrile]
−1% | −0.5% | 19.5% | CO[C@@H]1CN(c2ccc([C@@H]3CCN4[C@@H](C3)CN(c3ccc(C#N)c5ncccc35)C[C@H]4C)cn2)C[C@H]1N [Example 14, 5-[(4R,8R,9aS)-8-[6-[(3R,4R)-3-amino-4-methoxy-pyrrolidin-1-yl]-3-pyridyl]-4-methyl-1,3,4,6,7,8,9,9a-octahydropyrido[1,2-a]pyrazin-2-yl]quinoline-8-carbonitrile]
0% | −24.5% | 12% | C[C@@H]1CN(c2ccc(C#N)c3ncccc23)C[C@@H]2C[C@@H](Oc3ccc(N4CCNCC4)cn3)CCN21 [Example 11, 5-[(4R,8S,9aS)-4-methyl-8-[(5-piperazin-1-yl-2-pyridyl)oxy]-1,3,4,6,7,8,9,9a-octahydropyrido[1,2-a]pyrazin-2-yl]quinoline-8-carbonitrile]
6% | −5.5% | 38% | C[C@@H]1CN(c2ccc(C#N)c3ncccc23)C[C@@H]2C[C@H](c3ccc(N4CCNCC4)nc3)CCN21 (stereo in doubt) [Example 2, 5-[(4R,8R)-4-methyl-8-(6-piperazin-1-yl-3-pyridyl)-1,3,4,6,7,8,9,9a-octahydropyrido[1,2-a]pyrazin-2-yl]quinoline-8-carbonitrile]
−8% | −12.5% | 11% | CO[C@H]1CN(c2ccc([C@@H]3CCN4[C@@H](C3)CN(c3ccc(C#N)c5ncccc35)C[C@H]4C)cn2)C[C@@H]1N [Example 6, 5-[(4R,8R,9aS)-8-[6-[(3S,4S)-3-amino-4-methoxy-pyrrolidin-1-yl]-3-pyridyl]-4-methyl-1,3,4,6,7,8,9,9a-octahydropyrido[1,2-a]pyrazin-2-yl]quinoline-8-carbonitrile]
−3.5% | −6% | 30% | C[C@@H]1CN(c2ccc(C#N)c3ncccc23)C[C@@H]2C[C@H](c3ccc(N4C[C@@H](N)[C@@H](F)C4)nc3)CCN21 [Example 19, 5-[(4R,8R,9aS)-8-[6-[(3R,4S)-3-amino-4-fluoro-pyrrolidin-1-yl]-3-pyridyl]-4-methyl-1,3,4,6,7,8,9,9a-octahydropyrido[1,2-a]pyrazin-2-yl]quinoline-8-carbonitrile]
−6.5% | −2% | 9.5% | C[C@@H]1CN(c2ccc(C#N)c3ncccc23)C[C@@H]2C[C@H](N3CC(c4ccc(N5CCNCC5)cc4)C3)CCN21 [Example 9, 5-[(4R,8R,9aS)-4-methyl-8-[3-(4-piperazin-1-ylphenyl)azetidin-1-yl]-1,3,4,6,7,8,9,9a-octahydropyrido[1,2-a]pyrazin-2-yl]quinoline-8-carbonitrile]
